We go through seven compounds from ChEMBL document CHEMBL4342442, “Usnic Acid Enaminone-Coupled 1,2,3-Triazoles as Antibacterial and Antitubercular Agents” (J Nat Prod, 2020).

Assay [1] has as its system Staphylococcus epidermidis. Description: Antibacterial activity against Staphylococcus epidermidis assessed as reduction in microbial growth after 24 hrs by CLSI based microdilution method. The class given is functional. A general note: Dilution methods test growth across graded concentrations, often in twofold steps.
Another assay concerns CHO-K1. Description: Cytotoxicity against CHOK1 cells assessed as reduction in cell viability after 24 hrs by MTT assay. The class given is cell-based. The settings on record: Cricetulus griseus, CHO-K1, 24 h. A general note: Tetrazolium assays rely on reduction of a dye to a coloured formazan, in cell work by metabolically active cells.
The nature of assay [2]: Cytotoxicity against HEK cells assessed as reduction in cell viability after 24 hrs by MTT assay. Type of assay: cell-based, Homo sapiens.
The subject of assay [3] is Mycobacterium tuberculosis. In words: Antitubercular activity against Mycobacterium tuberculosis H37Rv assessed as reduction in microbial growth after 7 days by alamar blue assay. The class given is functional. The note with it: 168 h. Background: Alamar Blue is a resazurin reagent that responds to reducing activity.
The test system of assay [4] is Klebsiella pneumoniae. In words: Antibacterial activity against Klebsiella pneumoniae MTCC 618 assessed as diameter of zone of inhibition at 200 ug/ml after 24 hrs by agar well diffusion method. Type of assay: functional.
Assay [5] has as its system Mycobacterium tuberculosis. In words: Antitubercular activity against Mycobacterium tuberculosis H37Rv assessed as log reduction in bacterial population at 10 ug/ml under starvation condition after 7 days by MPN assay. The class given is functional.
Assay [6] deals with Klebsiella pneumoniae. In words: Antibacterial activity against Klebsiella pneumoniae MTCC 618 assessed as reduction in microbial growth after 24 hrs by CLSI based microdilution method. The class given is functional. The settings on record: MTCC 618, 24 h.
Assay [7] relates to Escherichia coli. In words: Antibacterial activity against Escherichia coli MTCC 443 assessed as reduction in microbial growth after 24 hrs by CLSI based microdilution method. The class given is functional. The settings on record: MTCC 443, 24 h.
Assay [8] deals with Pseudomonas aeruginosa. In words: Antibacterial activity against Pseudomonas aeruginosa MTCC 741 assessed as diameter of zone of inhibition at 200 ug/ml after 24 hrs by agar well diffusion method. The class given is functional.
Assay [9] relates to Bacillus subtilis. Description: Antibacterial activity against Bacillus subtilis MTCC 441 assessed as reduction in microbial growth after 24 hrs by CLSI based microdilution method. The settings on record: MTCC 441, 24 h. Type of assay: functional.
Assay [10] concerns Escherichia coli. In words: Antibacterial activity against Escherichia coli MTCC 443 assessed as diameter of zone of inhibition at 200 ug/ml after 24 hrs by agar well diffusion method. Type of assay: functional.
For assay [11], the system named is Staphylococcus aureus. In words: Antibacterial activity against Staphylococcus aureus MTCC 96 assessed as reduction in microbial growth after 24 hrs by CLSI based microdilution method. The class given is functional. The settings on record: MTCC 96, 24 h.
Assay [12] has as its system Pseudomonas aeruginosa. In words: Antibacterial activity against Pseudomonas aeruginosa MTCC 741 assessed as reduction in microbial growth after 24 hrs by CLSI based microdilution method. The class given is functional. The settings on record: MTCC 741, 24 h.
Assay [13] has as its system Staphylococcus epidermidis. Description: Antibacterial activity against Staphylococcus epidermidis assessed as diameter of zone of inhibition at 200 ug/ml after 24 hrs by agar well diffusion method. Type of assay: functional.
For assay [14], the system named is Bacillus subtilis. Description: Antibacterial activity against Bacillus subtilis MTCC 441 assessed as diameter of zone of inhibition at 200 ug/ml after 24 hrs by agar well diffusion method. The note with it: MTCC 441, 24 h, read-out: DIZ. Type of assay: functional.
The subject of assay [15] is Staphylococcus aureus. Description: Antibacterial activity against Staphylococcus aureus MTCC 96 assessed as diameter of zone of inhibition at 200 ug/ml after 24 hrs by agar well diffusion method. Type of assay: functional.
[16] abbreviates: Homo sapiens, HEK293, 24 h, read-out: IC50.

One may read the MIC as the least concentration at which growth counts as inhibited. The term IC50 denotes the concentration that inhibits the measured activity by half.

The source made the active and inactive calls. The calls are words filed in the database; no cut-off is given here. Some results are limits rather than exact numbers.

As for `CC(=O)c1c(O)c(C)c(O)c2c1OC1=CC(=O)/C(=C(/C)NCc3cn(CC(=O)c4ccc5ccccc5c4)nn3)C(=O)C12C` (stereo unspecified), the MIC in assay [1] is more than 350 µM; in assay [3], 5.3 µM; in the assay with Klebsiella pneumoniae [6], more than 350 µM; in the assay on Escherichia coli [7] it was more than 350 µM; in the assay on Bacillus subtilis [9] it was 169 µM; with Staphylococcus aureus [11], more than 350 µM. Moreover, the minimum inhibitory concentration (MIC) with Pseudomonas aeruginosa [12] is more than 350 µM. Also, the results for the IC50 (in the assay with CHO-K1; in assay [2]) were 67.4 µM and “Non-Toxic”, respectively. Moreover, the “diameter of the inhibition zone (DIZ)” value (in the assay on Klebsiella pneumoniae [4]; with Pseudomonas aeruginosa [8]; with Escherichia coli [10]; in assay [13]; in the assay on Staphylococcus aureus [15]) was “inactive” throughout. The FC in [5] is 2.1. Moreover, the zone of inhibition at 200 µg/mL in the assay on Bacillus subtilis [14] was determined as 11 mm.

As for `CC(=O)c1c(O)c(C)c(O)c2c1OC1=CC(=O)/C(=C(/C)NCc3cn(CC(=O)c4ccc(F)c(F)c4)nn3)C(=O)C12C` (stereo unspecified), the MIC is more than 350 µM in assay [1]; 5.4 µM in assay [3]; more than 350 µM in the assay with Klebsiella pneumoniae [6]; more than 350 µM with Escherichia coli [7]; 173 µM in the assay on Bacillus subtilis [9]; more than 350 µM in the assay on Staphylococcus aureus [11]. The MIC in the assay on Pseudomonas aeruginosa [12] is more than 350 µM. The IC50 was 53.4 µM in the assay on CHO-K1 and 52 µM in [2] (setting [16]). In addition, the “diameter of the inhibition zone (DIZ)” value (in the assay on Klebsiella pneumoniae [4]; in the assay on Pseudomonas aeruginosa [8]; with Escherichia coli [10]; in assay [13]; with Staphylococcus aureus [15]) was “inactive” each time. The FC in assay [5] came to 2.5. Moreover, the zone of inhibition at 200 µg/mL in the assay on Bacillus subtilis [14] worked out at 12 mm.

For `COc1ccccc1N1CCN(C(=O)Cn2cc(CN/C(C)=C3\C(=O)C=C4Oc5c(C(C)=O)c(O)c(C)c(O)c5C4(C)C3=O)nn2)CC1` (stereo unspecified), the MIC was more than 350 µM in assay [1]; 9.5 µM in assay [3]; more than 350 µM with Klebsiella pneumoniae [6]; more than 350 µM in the assay on Escherichia coli [7]; 305 µM in the assay with Bacillus subtilis [9]; more than 350 µM in the assay with Staphylococcus aureus [11]. Also, in the assay with Pseudomonas aeruginosa [12], the MIC is more than 350 µM. In addition, the IC50 in the assay on CHO-K1 is 40.4 µM; in [2], “Non-Toxic”. The “diameter of the inhibition zone (DIZ)” value (with Klebsiella pneumoniae [4]; in the assay on Pseudomonas aeruginosa [8]; in the assay with Escherichia coli [10]; in assay [13]; in the assay on Staphylococcus aureus [15]) was “inactive” in each case. Further, the zone of inhibition at 200 µg/mL in the assay on Bacillus subtilis [14] came out at 10 mm.

For the compound `CC(=O)c1c(O)c(C)c(O)c2c1OC1=CC(=O)/C(=C(/C)NCc3cn(CC(=O)N4CCOCC4)nn3)C(=O)C12C` (stereo unspecified), the MIC in assay [1] was more than 350 µM; in assay [3] it was 22.3 µM; with Klebsiella pneumoniae [6], more than 350 µM; in the assay on Escherichia coli [7], more than 350 µM; with Bacillus subtilis [9] it was 90.7 µM; in the assay with Staphylococcus aureus [11] it was more than 350 µM. Besides, in the assay on Pseudomonas aeruginosa [12], the MIC was more than 350 µM. The IC50 in the assay on CHO-K1 is 23.3 µM; in assay [2] (setting [16]), 53.4 µM. The “diameter of the inhibition zone (DIZ)” value (in the assay with Klebsiella pneumoniae [4]; in the assay on Pseudomonas aeruginosa [8]; in the assay with Escherichia coli [10]; in assay [13]; in the assay on Staphylococcus aureus [15]) was “inactive” each time. Moreover, the zone of inhibition at 200 µg/mL with Bacillus subtilis [14] came out at 13 mm.

Regarding `CC(=O)c1c(O)c(C)c(O)c2c1OC1=CC(=O)/C(=C(/C)NCc3cn(CC(=O)c4c(F)c(F)c(F)c(F)c4F)nn3)C(=O)C12C` (stereo unspecified), the MIC is more than 350 µM in [1]; 39.5 µM in assay [3]; more than 350 µM in the assay with Klebsiella pneumoniae [6]; more than 350 µM with Escherichia coli [7]; 158 µM in the assay with Bacillus subtilis [9]; more than 350 µM in the assay with Staphylococcus aureus [11]. The MIC with Pseudomonas aeruginosa [12] was more than 350 µM. The IC50 in the assay on CHO-K1 is 67.6 µM; in [2] it was “Non-Toxic”. Also, the “diameter of the inhibition zone (DIZ)” value (with Klebsiella pneumoniae [4]; in the assay with Pseudomonas aeruginosa [8]; in the assay with Escherichia coli [10]; in assay [13]; in the assay with Staphylococcus aureus [15]) was “inactive” throughout. Also, the zone of inhibition at 200 µg/mL with Bacillus subtilis [14] was found to be 12 mm.

`CC(=O)c1c(O)c(C)c(O)c2c1OC1=CC(=O)/C(=C(/C)NCc3cn(CC(=O)c4cccc(C(F)(F)F)c4)nn3)C(=O)C12C` (stereo unspecified): the MIC in assay [1] was more than 350 µM; in [3], 41 µM; with Klebsiella pneumoniae [6] it was more than 350 µM; in the assay on Escherichia coli [7], more than 350 µM; in the assay on Bacillus subtilis [9], 40.9 µM; in the assay with Staphylococcus aureus [11], more than 350 µM. Besides, the MIC in the assay on Pseudomonas aeruginosa [12] is more than 350 µM. For the same compound, the IC50 in the assay with CHO-K1 came to 25.6 µM; in assay [2] (setting [16]), 91.3 µM. The “diameter of the inhibition zone (DIZ)” value (in the assay with Klebsiella pneumoniae [4]; with Pseudomonas aeruginosa [8]; with Escherichia coli [10]; in assay [13]; in the assay with Staphylococcus aureus [15]) was “inactive” in each case. In the assay on Bacillus subtilis [14], the zone of inhibition at 200 µg/mL turned out to be 15 mm.

As for `CC(=O)c1c(O)c(C)c(O)c2c1OC1=CC(=O)/C(=C(/C)NCc3cn(CCN4C(=O)c5ccccc5S4(=O)=O)nn3)C(=O)C12C` (stereo unspecified), the IC50 in the assay with CHO-K1 stood at 12.1 µM; in [2] (setting [16]) it was 91.8 µM. In assay [3], the MIC amounted to 2.5 µM. The FC in [5] amounted to 2.8.
